Measured values published in ChEMBL document CHEMBL4477199, “Design and synthesis of novel bicalutamide and enzalutamide derivatives as antiproliferative agents for the treatment of prostate cancer” (Eur J Med Chem, 2016).

Tests used:
CWR22R [1] = test: Antiproliferative activity against human 22Rv1 cells after 96 hrs by propidium iodide staining based fluorescence 2D monolayer assay; format: functional, cell-based; settings: 22Rv1, 96 h
[2] = Apparent permeability from apical to basolateral side in human Caco2 cells at 10 uM incubated for 120 mins by LC-MS/MS analysis; settings: Caco-2
[3] = 33000 µM
Description: Solubility in 100% DMSO at 33 mM at -20 degC

in vitro = settings: human
VCaP [4] = test: Antiproliferative activity against human VCaP cells after 96 hrs by propidium iodide staining based fluorescence 2D monolayer assay; format: functional, cell-based
[5] = Efflux ratio of apparent permeability from basolateral to apical side over apical to basolateral side in human Caco2 cells at 10 uM incubated for 120 mins by LC-MS/MS analysis; settings: Caco-2
HepG2 = test: Cytotoxicity against human HepG2 cells assessed as reduction in cell viability after 72 hrs by MTT assay; format: functional, cell-based; settings: HepG2, 72 h; for minimal effective concentration: read-out: MEC
[6] = 96 h
Description: Solubility in RPMI1640 culture medium at <30 uM incubated for 4 days by microscopic analysis

[7] = Apparent permeability from basolateral to apical side in human Caco2 cells at 10 uM incubated for 120 mins by LC-MS/MS analysis; settings: Caco-2
[8] = Half life in human liver microsomes at 3 uM preincubated with compound followed by NADPH addition by LC-MS/MS analysis
DU-145 [9] = test: Antiproliferative activity against human DU145 cells after 96 hrs by propidium iodide staining based fluorescence 2D monolayer assay; format: functional, cell-based; settings: DU-145, 96 h
LNCaP [10] = test: Antiproliferative activity against human LNCAP cells after 96 hrs by propidium iodide staining based fluorescence 2D monolayer assay; format: functional, cell-based
DU-145 [11] = test: Antiproliferative activity against human DU145 cells assessed as relative inhibition after 96 hrs by propidium iodide staining based fluorescence 2D monolayer assay; format: functional, cell-based; settings: DU-145, 96 h
VCaP [12] = test: Antiproliferative activity against human VCaP cells assessed as relative inhibition after 96 hrs by propidium iodide staining based fluorescence 2D monolayer assay; format: functional, cell-based
LNCaP [13] = test: Antiproliferative activity against human LNCAP cells assessed as relative inhibition after 96 hrs by propidium iodide staining based fluorescence 2D monolayer assay; format: functional, cell-based
CWR22R [14] = test: Antiproliferative activity against human 22Rv1 cells assessed as relative inhibition after 96 hrs by propidium iodide staining based fluorescence 2D monolayer assay; format: functional, cell-based; settings: 22Rv1, 96 h
[15] = biological target: T1, Androgen receptor (Rattus norvegicus) (UniProt P15207); test: (§1) Antagonist activity at rat androgen receptor fused with DNA-binding domain of GAL4 expressed in AR-UAS-bla GripTite 293 cells assessed as inhibition of R1881-induced receptor activation preincubated for 30 mins followed by R1881 addition measured after 16 to 24 hrs by betalactamase reporter gene assay; format: cell-based
T1 sequence (whole entry): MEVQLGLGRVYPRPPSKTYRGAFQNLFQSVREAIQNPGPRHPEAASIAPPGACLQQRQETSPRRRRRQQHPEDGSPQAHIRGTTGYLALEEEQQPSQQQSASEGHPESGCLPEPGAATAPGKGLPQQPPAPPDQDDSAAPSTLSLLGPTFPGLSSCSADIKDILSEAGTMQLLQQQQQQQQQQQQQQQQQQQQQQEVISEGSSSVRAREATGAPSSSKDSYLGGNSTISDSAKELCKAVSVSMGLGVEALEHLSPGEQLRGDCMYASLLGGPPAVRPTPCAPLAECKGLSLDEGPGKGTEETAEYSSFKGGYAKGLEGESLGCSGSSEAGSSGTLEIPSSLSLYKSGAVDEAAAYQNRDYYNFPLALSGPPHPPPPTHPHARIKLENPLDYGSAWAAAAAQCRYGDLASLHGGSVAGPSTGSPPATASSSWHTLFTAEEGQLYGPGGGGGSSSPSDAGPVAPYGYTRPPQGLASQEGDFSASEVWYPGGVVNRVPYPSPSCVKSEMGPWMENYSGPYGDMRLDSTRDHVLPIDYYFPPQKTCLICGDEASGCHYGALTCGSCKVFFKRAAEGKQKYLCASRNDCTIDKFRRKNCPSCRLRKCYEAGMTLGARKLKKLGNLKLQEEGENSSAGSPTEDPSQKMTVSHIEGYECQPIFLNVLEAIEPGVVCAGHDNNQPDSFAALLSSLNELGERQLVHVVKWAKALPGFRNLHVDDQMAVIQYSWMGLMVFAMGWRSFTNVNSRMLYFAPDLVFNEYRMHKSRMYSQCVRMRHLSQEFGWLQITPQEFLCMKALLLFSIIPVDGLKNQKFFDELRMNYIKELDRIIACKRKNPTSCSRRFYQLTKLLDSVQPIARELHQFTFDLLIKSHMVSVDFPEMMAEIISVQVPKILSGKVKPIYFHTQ

Androgen receptor = biological target: T2, Androgen receptor (Rattus norvegicus, UniProt P15207); test: as §1; format: cell-based
T2 sequence (P15207 whole entry): T1 sequence (whole entry)

DU-145 [16] = test: Potency index, ratio of bicalutamide IC50 to compound IC50 for human DU145 cells; format: functional
CWR22R [17] = test: Potency index, ratio of bicalutamide IC50 to compound IC50 for human 22Rv1 cells; format: functional
LNCaP [18] = test: Potency index, ratio of bicalutamide IC50 to compound IC50 for human LNCAP cells; format: functional
VCaP [19] = test: Potency index, ratio of bicalutamide IC50 to compound IC50 for human VCaP cells; format: functional

| SMILES | IC50 (CWR22R [1]) [µM] | Papp A→B at 2 h, 10 µM [2] [×10⁻⁶ cm/s] | solubility [3] | IC50 (VCaP [4]) [µM] | efflux ratio at 2 h, 10 µM [5] | AC50 (HepG2) [µM] | minimal effective concentration (HepG2) [µM] | solubility [6] | Papp B→A at 2 h, 10 µM [7] [×10⁻⁶ cm/s] | IC50 (DU-145 [9]) [µM] | IC50 (LNCaP [10]) [µM] | inhibition [15] | IC50 (Androgen receptor) [µM] | also measured |
| --- | --- | --- | --- | --- | --- | --- | --- | --- | --- | --- | --- | --- | --- | --- |
| C[C@](O)(CSc1cccc(C(F)(F)F)c1)C(=O)Nc1ccc(C#N)c(C(F)(F)F)c1 | 13.1 | 6.84 | Soluble | 8.91 | 1.78 | 34.6 | 26.6 | Soluble | 12.2 | 19.4 | 14.3 |  |  | microsomal CLint at 3 µM (in vitro; microsomes): 302 µL/min/mg; half-life at 3 µM ([8]; microsomes): 4.59 min |
| CC(O)(CS(=O)(=O)c1ccc(F)cc1)C(=O)Nc1ccc(C#N)c(C(F)(F)F)c1 (stereo not drawn) [BICALUTAMIDE] | 49.6 |  |  | 68.4 |  |  |  |  |  | 49.2 | 45.3 |  |  | IC50 (DU-145 [11]): 46 µM; IC70 (DU-145 [11]): 58.3 µM; IC70 (CWR22R [1]): 65.1 µM; IC70 (VCaP [4]): > 100 µM; IC50 (VCaP [12]): 64.7 µM; IC70 (VCaP [12]): 97.3 µM; IC50 (LNCaP [13]): 47.3 µM; IC70 (LNCaP [13]): 60.9 µM; IC70 (DU-145 [9]): 61.3 µM; IC70 (LNCaP [10]): 59.1 µM; IC50 (CWR22R [14]): 48.5 µM; IC70 (CWR22R [14]): 64.1 µM |
| CC(O)(CS(=O)(=O)c1ccc(OC(F)(F)F)cc1)C(=O)Nc1ccc([N+](=O)[O-])cc1C(F)(F)F (stereo not drawn) | ≥ 100 |  | Soluble | ≥ 100 |  |  |  | Soluble |  | ≥ 100 | ≥ 100 |  |  | IC50 (DU-145 [11]): > 100 µM; IC70 (DU-145 [11]): > 100 µM; IC70 (CWR22R [1]): > 100 µM; IC70 (VCaP [4]): > 100 µM; IC50 (VCaP [12]): > 100 µM; IC70 (VCaP [12]): > 100 µM; IC50 (LNCaP [13]): > 100 µM; IC70 (LNCaP [13]): > 100 µM; IC70 (DU-145 [9]): > 100 µM; IC70 (LNCaP [10]): > 100 µM; IC50 (CWR22R [14]): > 100 µM; IC70 (CWR22R [14]): > 100 µM |
| CC(O)(CSc1ccccc1OC(F)(F)F)C(=O)Nc1ccc([N+](=O)[O-])cc1C(F)(F)F (stereo not drawn) | 4.64 |  | Soluble | 5.27 |  |  |  | Soluble |  | 6.57 to 6.58 | 3.31 |  |  | IC50 (DU-145 [11]): 6.16 µM; IC70 (DU-145 [11]): 7.59 µM; IC70 (CWR22R [1]): 6.31 µM; IC70 (VCaP [4]): 13.8 µM; IC50 (VCaP [12]): 4.66 µM; IC70 (VCaP [12]): 9.39 µM; IC50 (LNCaP [13]): 3.28 µM; IC70 (LNCaP [13]): 3.55 µM; IC70 (DU-145 [9]): 8.16 µM; IC70 (LNCaP [10]): 3.61 µM; IC50 (CWR22R [14]): 4.47 µM; IC70 (CWR22R [14]): 5.88 µM |
| CC(O)(CSc1cccc(C(F)(F)F)c1)C(=O)Nc1ccc(C#N)c(C(F)(F)F)c1 (stereo not drawn) | 5.56 | 3.92 | Soluble | 9.23 | 1.21 | 36.6 | 18.4 | Soluble | 4.73 | 10.6 | 5.03 |  |  | microsomal CLint at 3 µM (in vitro; microsomes): 232 µL/min/mg; half-life at 3 µM ([8]; microsomes): 5.97 min |
| CC(O)(CSc1ccccc1C(F)(F)F)C(=O)Nc1ccc(C#N)c(C(F)(F)F)c1 (stereo not drawn) | 5.06 |  |  | 7.51 |  | 25.8 | 14.7 |  |  | 7.73 | 4.91 | Dose-dependent effect | 0.425 | microsomal CLint at 3 µM (in vitro; liver microsomes): 379 µL/min/mg; half-life at 3 µM ([8]; liver microsomes): 3.66 min |
| CC1(C)C(=O)N(c2ccc(C(F)(F)F)cc2)C(=O)N1c1ccc([N+](=O)[O-])cc1C(F)(F)F | 16.4 |  | Soluble | 100 |  |  |  | Soluble |  | 100 | 3.73 | Dose-dependent effect | 0.265 |  |
| CC(O)(CSc1ccccc1C(F)(F)F)C(=O)Nc1ccc([N+](=O)[O-])cc1C(F)(F)F (stereo not drawn) | 12 |  | Soluble | 12.8 |  |  |  | Soluble |  | 17.5 | 11.7 | Dose-dependent effect | 0.332 |  |
| CC1(C)C(=O)N(c2cccc(C(F)(F)F)c2)C(=O)N1c1ccc([N+](=O)[O-])cc1C(F)(F)F | 5.01 |  | Soluble | 13.3 |  |  |  | Soluble |  | 7.88 | 4.07 | Dose-dependent effect | 0.111 |  |
| CC1(C)C(=O)N(c2ccc(C(F)(F)F)cc2)C(=O)N1c1ccc(C#N)cc1C(F)(F)F | 100 |  | Soluble | 100 |  |  |  | Soluble |  | 100 | 8.36 | Dose-dependent effect | 0.402 |  |
| O=C(Nc1ccc([N+](=O)[O-])c(C(F)(F)F)c1)C(O)(CSc1ccccc1C(F)(F)F)C(F)(F)F (stereo not drawn) | 1.28 |  | Soluble | 2.78 |  |  |  | Soluble |  | 2.4 | 0.719 to 0.72 | Dose-dependent effect | 0.245 | IC50 (DU-145 [11]): 2.36 µM; IC70 (DU-145 [11]): 2.7 µM; IC70 (CWR22R [1]): 1.7 µM; IC70 (VCaP [4]): 5.73 µM; IC50 (VCaP [12]): 2.43 µM; IC70 (VCaP [12]): 4.8 µM; IC50 (LNCaP [13]): 0.828 µM; IC70 (LNCaP [13]): 1.33 µM; IC70 (DU-145 [9]): 2.76 µM; IC70 (LNCaP [10]): 1.2 µM; IC50 (CWR22R [14]): 1.27 µM; IC70 (CWR22R [14]): 1.65 µM |
| CC(C)NCC(O)COc1cccc2ccccc12 (stereo not drawn) [PROPRANOLOL] |  | 40.3 |  |  | 1.03 |  |  |  | 41.6 |  |  |  |  |  |
| CC(O)(CSc1cccc(C(F)(F)F)c1)C(=O)Nc1ccc([N+](=O)[O-])c(C(F)(F)F)c1 (stereo not drawn) | 5.07 | 5 | Soluble | 8.64 | 0.853 | 26.1 | 13.2 | Soluble | 4.27 | 8.73 | 6.44 | Dose-dependent effect | 0.625 | microsomal CLint at 3 µM (in vitro; liver microsomes): 202 µL/min/mg; half-life at 3 µM ([8]; liver microsomes): 6.87 min |
| CC(O)(CS(=O)(=O)c1ccc(C(F)(F)F)cc1)C(=O)Nc1ccc(C#N)c(C(F)(F)F)c1 (stereo not drawn) | 21.5 |  | Soluble | 29.1 |  |  |  | Soluble |  | 32.8 | 20.1 |  |  | Ratio IC50 (DU-145 [16]): 2; Ratio IC50 (CWR22R [17]): 2; Ratio IC50 (LNCaP [18]): 2; Ratio IC50 (VCaP [19]): 2 |
| CC(O)(CS(=O)(=O)c1ccc(C(F)(F)F)cc1)C(=O)Nc1ccc([N+](=O)[O-])c(C(F)(F)F)c1 (stereo not drawn) | 18.7 |  | Soluble | 31.5 |  |  |  | Soluble |  | 24.7 | 17.9 |  |  | Ratio IC50 (DU-145 [16]): <=2; Ratio IC50 (CWR22R [17]): <=2; Ratio IC50 (LNCaP [18]): <=2; Ratio IC50 (VCaP [19]): <=2 |
| C[C@](O)(CSc1ccc(C(F)(F)F)cc1)C(=O)Nc1ccc(C#N)c(C(F)(F)F)c1 | 9.75 | 5.8 | Soluble | 9.28 | 0.817 | 61.2 | 49.6 | Soluble | 4.74 | 17.2 | 14.5 | Dose-dependent effect | 2.17 | microsomal CLint at 3 µM (in vitro; liver microsomes): 248 µL/min/mg; half-life at 3 µM ([8]; liver microsomes): 5.6 min |
